Experimental data as given in PubChem BioAssay (NCI).
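Briefly, cells in 96-well plates were exposed to five compound concentrations for 48 h, and endpoints were estimated by linear interpolation. TGI: concentration producing complete growth inhibition.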

How the values were obtained:
Assay in all cases: DTP human tumour cell line panel, 48 h
[1] = system: SK-MEL-2 melanoma
[2] = system: UACC-257 melanoma
[3] = system: HL-60(TB) leukemia
[4] = system: RXF 393 renal
[5] = system: CCRF-CEM leukemia
[6] = system: HCT-116 colon
[7] = system: MDA-MB-435
[8] = system: SF-295 CNS
[9] = system: NCI-H460 lung
[10] = system: SF-539 CNS
[11] = system: NCI-H522 lung
[12] = system: SK-OV-3 ovarian
[13] = system: ACHN renal
[14] = system: UACC-62 melanoma
[15] = system: A498 renal
[16] = system: SW-620 colon
[17] = system: SN12C renal
[18] = system: OVCAR-8 ovarian
[19] = system: SNB-75 CNS
[20] = system: BT-549 breast
[21] = system: SK-MEL-5 melanoma
[22] = system: SNB-19 CNS
[23] = system: NCI/ADR-RES ovarian
[24] = system: K-562 leukemia
[25] = system: HT29 colon
[26] = system: PC-3 prostate
[27] = system: UO-31 renal
[28] = system: MDA-MB-231 breast
[29] = system: OVCAR-4 ovarian
[30] = system: SK-MEL-28 melanoma
[31] = system: OVCAR-3 ovarian
[32] = system: NCI-H23 lung
[33] = system: SR leukemia
[34] = system: RPMI-8226 leukemia
[35] = system: HCC-2998 colon
[36] = system: HCT-15 colon
[37] = system: MOLT-4 leukemia
[38] = system: EKVX NSCLC
[39] = system: HOP-92 NSCLC
[40] = system: TK-10 renal
[41] = system: COLO 205 colon
[42] = system: KM12 colon
[43] = system: DU-145 prostate
[44] = system: M14 melanoma
[45] = system: A549 NSCLC
[46] = system: SF-268 CNS
[47] = system: HOP-62 NSCLC
[48] = system: MDA-N
[49] = system: 786-0 renal
[50] = system: OVCAR-5 ovarian
[51] = system: HS 578T breast
[52] = system: NCI-H226 lung
[53] = system: CAKI-1 renal
[54] = system: MCF7 breast
[55] = system: U251 CNS
[56] = system: MALME-3M melanoma
[57] = system: IGROV1 ovarian
[58] = system: LOX IMVI melanoma
[59] = system: T-47D breast

Measured: TGI

COC(=O)C1(Cc2ccccc2C)Cc2ccc(C)cc2C1=O (stereo not given)
85.9 µM: [40]
30.9 µM: [3]
57.5 µM: [25]
72.6 µM: [56]
96.4 µM: [4]
65.9 µM: [11]
33.1 µM: [33]
71.3 µM: [39]
47.7 µM: [1]
32.2 µM: [34]
41 µM: [54]
57.4 µM: [17]
74.7 µM: [37]
32.1 µM: [21]
45.9 µM: [58]
65.6 µM: [23]
38.1 µM: [41]
92.6 µM: [26]
> 100 µM: all other assays above

O=C1c2ccccc2-c2ccc(N(Cc3ccc(Br)cc3)Cc3ccc(Br)cc3)cc21
46.8 µM: [3]
46.2 µM: [5]
> 100 µM: all other assays above

CC1(C)OCC(C2OC(On3nnc4ccc(Cl)cc43)C3OC(C)(C)OC23)O1 (stereo not given)
not listed: [27] | [35]
> 100 µM: all other assays above
